Like-named read-outs stand apart in the source and are kept apart here.
Experiments:
[1] = test system: multidrug resistant (MDR) KB-V.1 cell line; experiment: Growth inhibition experiments (MTT, 5 d), KB-V.1; assay type: cell-based; conditions: Table 1
Protocol: Cancer Inst. 90, 1559-1563). […] The same applies for most novel derivatives, solely a hydroxyl group at C2′ of the polyketide segment instead of methoxy or simply hydrogen leads to an approximately 10-fold reduced potency. GI50 values of glycosylated derivatives were not determinable precisely in the assay's concentration range.
(§1) Cells were seeded at 6×10^3 cells per well of 96-well plates (Corning CellBind®) in 180 μl complete medium and directly treated with chondramides dissolved in methanol in a serial dilution. Each compound was tested in duplicate for 5 d, as well as the internal methanol control. After 5 d incubation, 20 μl of 5 mg/ml MTT (Mosmann, T. (1983). Rapid Colorimetric Assay for Cellular Growth and Survival: Application to Proliferation and Cytotoxicity Assays. J. Immunol. Meth. 65, 55-63) in PBS was added per well and it was further incubated for 2 h at 37° C. The medium was then discarded and cells were washed with 100 μl PBS before adding 100 μl 2-propanol/10 N HCl (250:1) in order to dissolve formazan granules. The absorbance at 570 nm was measured using a microplate reader (EL808, Bio-Tek Instruments Inc.), and cell viability was expressed as percentage relative to the respective methanol control. GI50 values were obtained by sigmoidal curve fitting. Testing of fractions was performed likewise using 1.2×10^4 cells per well. Samples were dissolved in cell culture medium and cells were treated for 2 d before adding MTT. Viability was expressed relative to the untreated control.

[2] = test system: fibroblast cell line MRC5; experiment: Growth inhibition experiments (MTT, 5 d), MRC5; assay type: cell-based, human; conditions: Table 1
Protocol: (§2) With primary cells (HUVEC, human umbilical vein endothelial cells) and the fibroblast cell line MRC5 this is not the case. Whereas chondramides A˜C are comparably active on both, cancer and non-cancerous cells, brominated chondramide C3 analogs are on average by factor 2-4 less toxic for non-cancerous cells. Accordingly they show a higher selectivity.
as §1

[3] = test system: human U-2 OS osteosarcoma cell line; experiment: Growth inhibition experiments (MTT, 5 d), U-2 OS; assay type: cell-based
Protocol: as §1

[4] = test system: HCT-116 colon carcinoma cell line; experiment: Growth inhibition experiments (MTT, 5 d), HCT-116; assay type: cell-based, human
Protocol: as §1

[5] = test system: KB-3.1: human cervical carcinoma; experiment: Growth inhibition experiments (GI50), KB-3.1; assay type: cell-based; conditions: for GI50 values KB-3.1: Table 1; for GI50 KB-3.1: group A derivatives, small panel of cancer cell lines, KB-3.1 human cervical carcinoma
[6] = test system: HUVEC, human umbilical vein endothelial cells (primary cells); experiment: Growth inhibition experiments (MTT, 5 d), HUVEC; assay type: cell-based; conditions: Table 1
Text: as §2
Cell lines were obtained from the American Type Culture Collection (ATCC) and the German Collection of Microorganisms and Cell Cultures (Deutsche Sammlung für Mikroorganismen and Zellkulturen, DSMZ), and HUVEC (single donor) were purchased from PromoCell. Cells were cultured under the conditions recommended by the respective depositor in a standard humidified incubator at 37° C. with 5% CO2.
as §1

L-929 = experiment: Growth inhibition experiments (GI50), L-929; assay type: cell-based; conditions: Table 1
[7] = test system: RAW246.7: murine leukemic monocyte macrophages; experiment: Growth inhibition experiments (GI50), RAW246.7; assay type: cell-based; conditions: group A derivatives, small panel of cancer cell lines
[8] = target: T1, pyrene-labeled rabbit muscle actin (Oryctolagus cuniculus, UniProt P68135); experiment: Actin polymerization assay (pyrene actin fluorescence); assay type: biochemical; conditions: 20 μM derivative, 5 μM pyrene actin, non-polymerizing buffer, followed over 85 min
T1 construct: pyrene-labeled rabbit muscle actin; purchased Cytoskeleton, Inc; host or cells: rabbit muscle (tissue-derived; inferred from the name)
Protocol: A final concentration of 20 μM for each derivative was chosen and polymerization was followed over 85 min.
Fluorescence-based actin polymerization assays were performed using pyrene muscle actin (Cytoskeleton, Inc.) according to the supplier's protocol. Chondramides were dissolved in non-polymerizing buffer (5 mM Tris-HCl pH 8.0, 0.2 mM CaCl2, 0.2 mM ATP, 1 mM DTT) and mixed with pyrene actin diluted in the same buffer to give a final concentration of 20 μM chondramide and 5 μM actin. Samples were prepared in black, low-volume 384-well plates (Corning, NBS™ surface). The fluorescence at 405 nm (excitation at 360 nm) was scanned every 30 s for 85 min at 37° C. on a microplate reader (Spectramax M5^e, Molecular Devices). Experiments were performed in duplicates and the average relative fluorescence of polymerizing pyrene actin is given. Slopes were calculated in the linear range of kinetic measurements.

[9] = Table 1, U-2 OS, read-out: GI50 values U-2 OS
[10] = Table 1, HCT-116, read-out: GI50 values HCT-116
[11] = group A derivatives, small panel of cancer cell lines, U-2 OS human osteosarcoma, read-out: GI50 U-2 OS
[12] = group A derivatives, small panel of cancer cell lines, HCT-116 human colon carcinoma, read-out: GI50 HCT-116

## CC1=CC(C)C(C)OC(=O)CC(c2ccc(O)c(Br)c2)NC(=O)C(Cc2c[nH]c3ccccc23)N(C)C(=O)C(C)NC(=O)C(C)C1 (stereo not shown) [Bromo-Chondramide C3]
[1]
  GI50 values KB-V.1: 23.8 ± 2.1 nM
[2]
  GI50: 57.7 ± 3.5 nM
[3]; [9]
  GI50: 4.8 ± 1.7 nM
[4]; [10]
  GI50: 17.7 ± 1.3 nM
[5]
  GI50 values KB-3.1: 46.8 ± 6.5 nM
[6]
  GI50: 44.4 ± 7 nM
L-929
  GI50: 14 ± 1.4 nM

## CCC1C/C=C(\C)CC(C)C(=O)NC(C)C(=O)N(C)C(C(C)C)C(=O)NC(c2ccc(O)c(Cl)c2)CC(=O)O1 (single isomer, unassigned) [CA6-Fr2]
[3]; [11]
  GI50: 65.4 nM
[4]; [12]
  GI50: 101 nM
[5]
  GI50 KB-3.1: 74.5 nM
[7]
  GI50: 105 nM

## CC1=CC(C)C(C)OC(=O)C(O)C(c2ccc(O)c(Cl)c2)NC(=O)C(Cc2c(Cl)[nH]c3ccccc23)N(C)C(=O)C(C)NC(=O)C(C)C1 (stereo not shown) [Chondramide E4]
[1]
  GI50 values KB-V.1: 251.5 ± 79.1 nM
[2]
  GI50: 480 ± 63.6 nM
[3]; [9]
  GI50: 352 ± 30.6 nM
[4]; [10]
  GI50: 379 ± 30.2 nM
[5]
  GI50 values KB-3.1: 627.2 ± 122.5 nM
[6]
  GI50: 207 ± 26.4 nM
L-929
  GI50: 555 ± 81.6 nM
[8]
  actin-polymerizing effect (G-actin polymerization in vitro): decreased ability to polymerize actin

## C/C1=C\CCOC(=O)CC(c2ccc(O)c(Cl)c2)NC(=O)C(C(C)C)N(C)C(=O)C(C)NC(=O)CC1 (stereo not shown) [CA9]
[3]; [11]
  GI50: > 180 nM
[4]; [12]
  GI50: 180 nM
[5]
  GI50 KB-3.1: >180 nM
[7]
  GI50: > 180 nM

## CCC1C/C=C(\C)CC(C)C(=O)NC(C)C(=O)N(C)C(C(C)C)C(=O)NC(c2ccc(O)c(Cl)c2)CC(=O)O1 (single isomer, unassigned) [CA6-Fr1]
[3]; [11]
  GI50: 59.6 nM
[4]; [12]
  GI50: 79.4 nM
[5]
  GI50 KB-3.1: 71.4 nM
[7]
  GI50: 41.1 nM

## CCC1C/C=C(\C)CC(C)C(=O)NC(C)C(=O)N(C)C(Cc2c(Cl)[nH]c3ccccc23)C(=O)NC(c2ccc(O)c(Cl)c2)CC(=O)O1 (single isomer, unassigned) [CA7-Fr2]
[3]; [11]
  GI50: 1.3 nM
[4]; [12]
  GI50: 0.8 nM
[5]
  GI50 KB-3.1: 1.9 nM
[7]
  GI50: 1.8 nM

## CCC1C/C=C(\C)CC(C)C(=O)NC(C)C(=O)N(C)C(Cc2c(Cl)[nH]c3ccccc23)C(=O)NC(c2ccc(O)c(Cl)c2)CC(=O)O1 (single isomer, unassigned) [CA7-Fr1]
[3]; [11]
  GI50: 53.5 nM
[4]; [12]
  GI50: 16.3 nM
[5]
  GI50 KB-3.1: 97.9 nM
[7]
  GI50: 74.7 nM

## C/C1=C\[C@@H](C)[C@@H](C)OC(=O)C[C@H](c2ccc(O)cc2)NC(=O)[C@@H](Cc2c[nH]c3ccccc23)N(C)C(=O)[C@H](C)NC(=O)[C@@H](C)C1 [Chondramide C, reference compound]
[1]
  GI50 values KB-V.1: 85.8 ± 14.9 nM
[2]
  GI50: 26.1 ± 4.7 nM
[3]; [9]
  GI50: 25.6 ± 1.2 nM
[4]; [10]
  GI50: 33.7 ± 3.2 nM
[5]
  GI50 values KB-3.1: 36.8 ± 6.8 nM
[6]
  GI50: 34 ± 3.7 nM
L-929
  GI50: 87.3 ± 14.9 nM

## CCC1C/C=C(\C)CCC(=O)NC(C)C(=O)N(C)C(C(C)C)C(=O)NC(c2ccc(O)c(Cl)c2)CC(=O)O1 (stereo not shown) [CA5]
[3]; [11]
  GI50: 153 nM
[4]; [12]
  GI50: 77.3 nM
[5]
  GI50 KB-3.1: 68.7 nM
[7]
  GI50: 56.2 nM
